The values below come from US6977294B2, “Process for isolation of eupalitin from Boerhavia diffusa” (Council of Scientific and Industrial Research, priority 2002, dated 2005).

Entries after “also recorded” stand apart in the source; their conditions may differ. Like-named read-outs stand apart in the source and are kept apart here.

Data set [1] has as its system Ca^2+ channel. Particulars: frog heart single cells; cited from earlier work.
The conditions of data set [2]: rats; cited from earlier work.
For data set [3] the following is noted: cats; cited from earlier work.
For data set [4] the following is noted: monkeys; cited from earlier work.
Data set [5] in a line: solubility in methanol. It is filed as physicochemical. From the text: The process of the present invention overcomes disadvantages of the prior art since: • 1. Aerial parts such as leaves of Boerhavia diffusa collected from specific locations identified herein are used (containing the maximum amount of the compound and as established by analyzing the samples of the plant collected during three years). • 2. The process prescribes hot continuous extraction (Soxhlet extraction) ensuring complete extraction of compound of formula 1. […] The compound is purified by direct crystallization from the residue obtained after triturition described in 3, making it the simplest, quickest, highly economically viable, scale up compatible for commercial utilization and novel method for the isolation of compound of formula 1 with an yield upto 0.4% which is more than 300 times the yield reported by Li et al.

Data set [6] relates to bone resorption induced by parathyroid hormone (PTH). Particulars: cited from earlier work; for activity compared with ipriflavone: under identical conditions, anti-osteoporosis activity.

As for `COc1cc([C@H]2OC[C@H]3[C@@H]2CO[C@@H]3c2cc(OC)c(O[C@@H]3O[C@H](CO)[C@@H](O)[C@H](O)[C@H]3O)c(OC)c2)cc(OC)c1O[C@@H]1O[C@H](CO)[C@@H](O)[C@H](O)[C@H]1O` [Liriodendrin, liriodendrin], the “Ca2+ channel block” value in data set [1] is “blocked”.

With `O=c1[nH]cnc2c1ncn2C1O[C@@H](CO)[C@H](O)[C@H]1O` (stereo partly drawn) [hypoxanthine 9-L-arabinoside], the cardiovascular effects entry in data set [2] was “depressor and negative chronotropic effects”; in data set [3], “depressor and negative chronotropic effects”.

For the molecule Punarnavoside, the antifibrinolytic activity entry in data set [4] is on record as “had antifibrinolytic activity”.

As for `COc1cc2oc(-c3ccc(O)cc3)c(OC3OC(CO)C(O)C(O)C3O)c(=O)c2c(O)c1OC` [eupalitin 3-O-β-D-galactopyranoside, 5,4′-dihydroxy 6,7-dimethoxy-flavonol-3-O-β-D-galactoside], the solubility in methanol entry in data set [5] is “not highly soluble”. Besides, the “inhibition of bone resorption induced by parathyroid hormone (PTH)” value in data set [6] (tissue culture) was “significant (p<0.001) inhibition”. In addition, the “activity compared with ipriflavone” value in data set [6] is recorded as “greater anti-osteoporosis activity than ipriflavone; also recorded: more than that exhibited by lpriflavone”; in data set [6] (listed as 3-O-β-D-galactopyranoside) it was “greater anti-osteoporosis activity than ipriflavone”.
